Assay results as given in paper PMC8205226, “HIV-1 Integrase Inhibitors with Modifications That Affect Their Potencies against Drug Resistant Integrase Mutants” (ACS Infectious Diseases, 2021).

Assays:
Format in all cases: cell-based
WT HIV-1 = experiment: single-round infectivity assay, WT HIV-1 IN vector; conditions: Human immunodeficiency virus 1, read-out: EC50 values WT, vector carrying WT HIV-1 IN, single round infection, n = 4; new compounds
Description: (§1) Figure 2 Antiviral activities of the new compounds against RAL-resistant mutants. The EC50 values were determined using a vector that carries WT HIV-1 IN and the RAL-resistant mutants in a single round infection assay. […] Error bars represent the standard deviations of independent experiments, n = 4, performed in triplicate. The graph has a maximum value of 550 nM.
(§2) WT and mutant HIV-1 viral vectors were used in single-round infectivity assays to determine the antiviral potencies (EC50 values) of the compounds and the effects of the mutants on the EC50 values as previously described.[30],[54] Single round infectivity measurements were determined as done previously.[38]
(§3) The vector pNLNgoMIVR-ΔENV.LUC has been described previously.[26] To produce the new IN mutants used in this study, the IN open reading frame was removed from pNLNgoMIVR-ΔENV.LUC by digestion with KpnI and SalI, and the resulting fragment was inserted between the KpnI and SalI sites of pBluescript KS+. Using that construct as the wild-type template, we prepared the following HIV-1 IN mutants using the QuikChange II XL site directed mutagenesis kit (Agilent Technologies, Santa Clara, CA) protocol: N117A, N117H, P142A, P142H, P142S, Y143C, Y143H, S230R, R231G, and R231K. The following sense oligonucleotides were used with matching cognate antisense oligonucleotides (not shown) (Integrated DNA Technologies, Coralville, IA) in the mutagenesis: N117A, 5′-[…]-3′; N117H, 5′-[…]-3′; P142A, 5′-[…]-3′; P142H, 5′-[…]-3′; P142S, 5′-[…]-3′; Y143C, 5′- […]-3′; Y143H, 5′-[…]-3′; S230R, 5′- […]-3′; R231G, 5′-[…]-3′; R231K, 5′-[…]-3′.

HIV-1 IN mutant Y143R = experiment: single-round infectivity assay, Y143R IN mutant
Description: as §1, §2, §3

HIV-1 IN mutant N155H = experiment: single-round infectivity assay, N155H IN mutant
Description: as §1, §2, §3

[1] = tested on: HIV-1 IN double mutant G140S/Q148H; experiment: single-round infectivity assay, G140S/Q148H IN double mutant
Description: as §1, §2, §3

HIV-1 IN mutant N117A = experiment: single-round infectivity assay, N117A IN mutant
Description: (§4) The EC50 values were determined using a vector that carries the IN mutant in a single round infection assay. […] Error bars represent the standard deviations of independent experiments, n = 4, performed in triplicate.
as §2, §3

HIV-1 IN mutant N117H = experiment: single-round infectivity assay, N117H IN mutant
Description: as §4, §2, §3

HIV-1 IN mutant G118R = experiment: single-round infectivity assay, G118R IN mutant
Description: as §4, §2, §3

HIV-1 IN mutant S119R = experiment: single-round infectivity assay, S119R IN mutant
Description: as §4, §2, §3

HIV-1 IN mutant Y143C = experiment: single-round infectivity assay, Y143C IN mutant; conditions: EC50 compound / EC50 DTG
Description: as §4, with “Figure 4 Mutations in the β5-α3 loop affect the antiviral potencies of the new compounds. The” for “The”
as §2, §3

HIV-1 IN mutant Y143H = experiment: single-round infectivity assay, Y143H IN mutant; conditions: EC50 compound / EC50 DTG
Description: as §4, with “Figure 4 Mutations in the β5-α3 loop affect the antiviral potencies of the new compounds. The” for “The”
as §2, §3

HIV-1 IN mutant P142A = experiment: single-round infectivity assay, P142A IN mutant
Description: as §4, with “Figure 4 Mutations in the β5-α3 loop affect the antiviral potencies of the new compounds. The” for “The”
as §2, §3

HIV-1 IN mutant P142H = experiment: single-round infectivity assay, P142H IN mutant
Description: as §4
Single round infectivity measurements were determined as done previously.[38]
as §3

HIV-1 IN mutant P142S = experiment: single-round infectivity assay, P142S IN mutant
Description: as §4, with “Figure 4 Mutations in the β5-α3 loop affect the antiviral potencies of the new compounds. The” for “The”
as §2, §3

HIV-1 IN mutant S230R = experiment: single-round infectivity assay, S230R IN mutant
Description: as §4, with “Figure 5 Antiviral potencies of the new compounds against IN with mutations in the […]. The” for “The”
as §2, §3

HIV-1 IN mutant R231G = experiment: single-round infectivity assay, R231G IN mutant
Description: as §4, with “Figure 5 Antiviral potencies of the new compounds against IN with mutations in the […]. The” for “The”
as §2, §3

HIV-1 IN mutant R231K = experiment: single-round infectivity assay, R231K IN mutant
Description: as §4, with “Figure 5 Antiviral potencies of the new compounds against IN with mutations in the […]. The” for “The”
as §2, §3

[2] = fold change in EC50, IN mutant versus WT HIV-1

CS(=O)(=O)CCc1cnc2c(c1)c(N)c(C(=O)NCc1ccc(F)cc1F)c(=O)n2O [6u, 4-Amino-N-(2,4-difluorobenzyl)-1-hydroxy-6-(2-(methylsulfonyl)ethyl)-2-oxo-1,2-dihydro-1,8-naphthyridine-3-carboxamide]
EC50 (WT HIV-1): 27 ± 3.2 nM
ratio of the EC50s (our compound relative to DTG) against Y143R (HIV-1 IN mutant Y143R; EC50 compound / EC50 DTG): 6.4
EC50 (HIV-1 IN mutant Y143R; Human immunodeficiency virus 1, read-out: EC50 values Y143R): 27.5 ± 0.4 nM
FC Y143R (HIV-1 IN mutant Y143R; [2]): 1.0
ratio of the EC50s (our compound relative to DTG) against N155H (HIV-1 IN mutant N155H; EC50 compound / EC50 DTG): 9.1
EC50 (HIV-1 IN mutant N155H; Human immunodeficiency virus 1, read-out: EC50 values N155H): 32.8 ± 6 nM
FC N155H (HIV-1 IN mutant N155H; [2]): 1.2
ratio of the EC50s (our compound relative to DTG) against G140S/Q148H ([1]; EC50 compound / EC50 DTG): 20.3
EC50 ([1]; Human immunodeficiency virus 1, read-out: EC50 values G140S/Q148H): 118 ± 31.3 nM
FC G140S/Q148H [1, 2]: 4.4
ratio of the EC50s (our compound relative to DTG) against N117A (HIV-1 IN mutant N117A; EC50 compound / EC50 DTG): 30.0
EC50 (HIV-1 IN mutant N117A; Human immunodeficiency virus 1, read-out: EC50 values N117A): 15 nM
FC N117A (HIV-1 IN mutant N117A; [2]): 0.6
ratio of the EC50s (our compound relative to DTG) against N117H (HIV-1 IN mutant N117H; EC50 compound / EC50 DTG): 24.3
EC50 (HIV-1 IN mutant N117H; Human immunodeficiency virus 1, read-out: EC50 values N117H): 58.3 ± 5.9 nM
FC N117H (HIV-1 IN mutant N117H; [2]): 2.2
ratio of the EC50s (our compound relative to DTG) against G118R (HIV-1 IN mutant G118R; EC50 compound / EC50 DTG): 16.5
EC50 (HIV-1 IN mutant G118R; Human immunodeficiency virus 1, read-out: EC50 values G118R): 214 ± 26.3 nM
FC G118R (HIV-1 IN mutant G118R; [2]): 7.9
ratio of the EC50s (our compound relative to DTG) against S119R (HIV-1 IN mutant S119R; EC50 compound / EC50 DTG): 24.5
EC50 (HIV-1 IN mutant S119R; Human immunodeficiency virus 1, read-out: EC50 values S119R): 56.4 ± 11 nM
FC S119R (HIV-1 IN mutant S119R; [2]): 2.1
ratio of the EC50s (our compound relative to DTG) against Y143C (HIV-1 IN mutant Y143C): 31.4
ratio of the EC50s (our compound relative to DTG) against Y143H (HIV-1 IN mutant Y143H): 17.0
ratio of the EC50s (our compound relative to DTG) against P142A (HIV-1 IN mutant P142A; EC50 compound / EC50 DTG): 20.3
EC50 (HIV-1 IN mutant P142A; Human immunodeficiency virus 1, read-out: EC50 values P142A): 50.8 ± 6.4 nM
ratio of the EC50s (our compound relative to DTG) against P142H (HIV-1 IN mutant P142H; EC50 compound / EC50 DTG): 16.1
EC50 (HIV-1 IN mutant P142H; Human immunodeficiency virus 1, read-out: EC50 values P142H): 45.1 ± 5.2 nM
ratio of the EC50s (our compound relative to DTG) against P142S (HIV-1 IN mutant P142S; EC50 compound / EC50 DTG): 23.4
EC50 (HIV-1 IN mutant P142S; Human immunodeficiency virus 1, read-out: EC50 values P142S): 51.5 ± 2.4 nM
ratio of the EC50s (our compound relative to DTG) against S230R (HIV-1 IN mutant S230R; EC50 compound / EC50 DTG): 19.1
EC50 (HIV-1 IN mutant S230R; Human immunodeficiency virus 1, read-out: EC50 values S230R): 88 ± 14.5 nM
FC S230R (HIV-1 IN mutant S230R; [2]): 3.3
ratio of the EC50s (our compound relative to DTG) against R231G (HIV-1 IN mutant R231G; EC50 compound / EC50 DTG): 22.5
EC50 (HIV-1 IN mutant R231G; Human immunodeficiency virus 1, read-out: EC50 values R231G): 31.5 ± 4 nM
FC R231G (HIV-1 IN mutant R231G; [2]): 1.2
ratio of the EC50s (our compound relative to DTG) against R231K (HIV-1 IN mutant R231K; EC50 compound / EC50 DTG): 18.7
EC50 (HIV-1 IN mutant R231K; Human immunodeficiency virus 1, read-out: EC50 values R231K, single round infection, n = 4): 78.4 ± 9.9 nM
FC R231K (HIV-1 IN mutant R231K; [2]): 2.9
